In US12577223B2, “Processes for preparing 2-(4-chlorophenyl)-n-((2-(2,6-dioxopiperidin-3-yl)-1-oxoisoindolin-5-yl)methyl)-2,2-difluoroacetamide” (Celgene Corporation, priority 2019, dated 2026) one finds water uptake data, which are given here for one molecule.

A short description of the data set: dynamic vapor sorption (DVS) analysis. It is filed as physicochemical. The following applies: relative humidity increased from about 0% to about 90% RH. The source says: FIG. 5 provides a DVS isotherm plot of polymorph Form C of 2-(4-chlorophenyl)-N-((2-(2,6-dioxopiperidin-3-yl)-1-oxoisoindolin-5-yl)methyl)-2,2-difluoroacetamide.
In certain embodiments, polymorph Form C is characterized by dynamic vapor sorption analysis. A representative dynamic vapor sorption (DVS) isotherm plot is shown in
FIG. 5. […] In certain embodiments, polymorph Form C comprises less than 0.1% water as determined in a coulometric Karl Fischer (KF) titrator equipped with an oven sample processor set at 225° C.

For the molecule `O=C1CCC(N2Cc3cc(CNC(=O)C(F)(F)c4ccc(Cl)cc4)ccc3C2=O)C(=O)N1` (stereo not shown) [polymorph Form C, 2-(4-chlorophenyl)-N-((2-(2,6-dioxopiperidin-3-yl)-1-oxoisoindolin-5-yl)methyl)-2,2-difluoroacetamide], the water uptake result is given as “about 0.6 % w/w”.
